Laboratory results published in PubChem BioAssay (NCI).
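96-well plates; 48 h exposure; 5 concentrations. Endpoints by linear interpolation between flanking doses. Not reached: highest tested concentration assigned. GI50 is the concentration that inhibits growth by half. TGI: concentration producing complete growth inhibition.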

Assays:
Assay in all cases: growth of human tumour cells (NCI), 48 h
[1] = tested on: 786-0 renal
[2] = tested on: A498 renal
[3] = tested on: A549 NSCLC
[4] = tested on: ACHN renal
[5] = tested on: BT-549 breast
[6] = tested on: CAKI-1 renal
[7] = tested on: CCRF-CEM leukemia
[8] = tested on: COLO 205 colon
[9] = tested on: DU-145 prostate
[10] = tested on: EKVX NSCLC
[11] = tested on: HCC-2998 colon
[12] = tested on: HCT-116 colon
[13] = tested on: HCT-15 colon
[14] = tested on: HL-60(TB) leukemia
[15] = tested on: HOP-62 NSCLC
[16] = tested on: HOP-92 NSCLC
[17] = tested on: HS 578T breast
[18] = tested on: HT29 colon
[19] = tested on: IGROV1 ovarian
[20] = tested on: K-562 leukemia
[21] = tested on: KM12 colon
[22] = tested on: LOX IMVI melanoma
[23] = tested on: M14 melanoma
[24] = tested on: MALME-3M melanoma
[25] = tested on: MCF7 breast
[26] = tested on: MDA-MB-231 breast
[27] = tested on: MDA-MB-435
[28] = tested on: MOLT-4 leukemia
[29] = tested on: NCI-H226 lung
[30] = tested on: NCI-H23 lung
[31] = tested on: NCI-H460 lung
[32] = tested on: NCI-H522 lung
[33] = tested on: NCI/ADR-RES ovarian
[34] = tested on: OVCAR-3 ovarian
[35] = tested on: OVCAR-4 ovarian
[36] = tested on: OVCAR-5 ovarian
[37] = tested on: OVCAR-8 ovarian
[38] = tested on: PC-3 prostate
[39] = tested on: RPMI-8226 leukemia
[40] = tested on: RXF 393 renal
[41] = tested on: SF-268 CNS
[42] = tested on: SF-295 CNS
[43] = tested on: SF-539 CNS
[44] = tested on: SK-MEL-2 melanoma
[45] = tested on: SK-MEL-28 melanoma
[46] = tested on: SK-MEL-5 melanoma
[47] = tested on: SK-OV-3 ovarian
[48] = tested on: SN12C renal
[49] = tested on: SNB-19 CNS
[50] = tested on: SNB-75 CNS
[51] = tested on: SR leukemia
[52] = tested on: SW-620 colon
[53] = tested on: T-47D breast
[54] = tested on: TK-10 renal
[55] = tested on: U251 CNS
[56] = tested on: UACC-257 melanoma
[57] = tested on: UACC-62 melanoma
[58] = tested on: UO-31 renal

Compound: C=CC(=O)N1C[C@H](COc2nc(Nc3cnn(C)c3)nc3[nH]cc(Cl)c23)[C@@H](OC)C1
- GI50 [1]: 1.96 µM
- TGI [1]: 29.6 µM
- GI50 [2]: 0.26 µM
- TGI [2]: 1.14 µM
- GI50 [3]: 2.8 µM
- TGI [3]: 14.8 µM
- GI50 [4]: 0.993 µM
- TGI [4]: 13.3 µM
- GI50 [5]: 0.992 µM
- TGI [5]: 8.34 µM
- GI50 [6]: 1 µM
- TGI [6]: 3.67 µM
- GI50 [7]: 0.635 µM
- TGI [7]: > 100 µM
- GI50 [8]: 2.83 µM
- TGI [8]: 14.6 µM
- GI50 [9]: 1.45 µM
- TGI [9]: 15.4 µM
- GI50 [10]: 1.23 µM
- TGI [10]: 8.55 µM
- GI50 [11]: 5.47 µM
- TGI [11]: 19.4 µM
- GI50 [12]: 1.24 µM
- TGI [12]: 14.3 µM
- GI50 [13]: 4.74 µM
- TGI [13]: 24.3 µM
- GI50 [14]: 3.31 µM
- TGI [14]: 13 µM
- GI50 [15]: 4.12 µM
- TGI [15]: 28.5 µM
- GI50 [16]: 1.25 µM
- TGI [16]: 4.87 µM
- GI50 [17]: 1.01 µM
- TGI [17]: 4.31 µM
- GI50 [18]: 5.24 µM
- TGI [18]: 48.6 µM
- GI50 [19]: 0.438 µM
- TGI [19]: 2.79 µM
- GI50 [20]: 4.75 µM
- TGI [20]: > 100 µM
- GI50 [21]: 0.342 µM
- TGI [21]: 14 µM
- GI50 [22]: 0.894 µM
- TGI [22]: 12.2 µM
- GI50 [23]: 4.49 µM
- TGI [23]: 20.3 µM
- GI50 [24]: 10.9 µM
- TGI [24]: 24.4 µM
- GI50 [25]: 1.22 µM
- TGI [25]: 13.8 µM
- GI50 [26]: 2.84 µM
- TGI [26]: 16.1 µM
- GI50 [27]: 3 µM
- TGI [27]: 16.4 µM
- GI50 [28]: 2.02 µM
- TGI [28]: 37.9 µM
- GI50 [29]: 0.97 µM
- TGI [29]: 21.7 µM
- GI50 [30]: 4.1 µM
- TGI [30]: 18.9 µM
- GI50 [31]: 4.13 µM
- TGI [31]: 18.6 µM
- GI50 [32]: 0.431 µM
- TGI [32]: 17.6 µM
- GI50 [33]: 18 µM
- TGI [33]: 65.3 µM
- GI50 [34]: 2.28 µM
- TGI [34]: 18 µM
- GI50 [35]: 2.15 µM
- TGI [35]: 14.1 µM
- GI50 [36]: 3.18 µM
- TGI [36]: 48.4 µM
- GI50 [37]: 4.74 µM
- TGI [37]: 24.5 µM
- GI50 [38]: 3.98 µM
- TGI [38]: 55.3 µM
- GI50 [39]: 3.29 µM
- TGI [39]: 22.7 µM
- GI50 [40]: 0.509 µM
- TGI [40]: 2.88 µM
- GI50 [41]: 0.965 µM
- TGI [41]: 15.5 µM
- GI50 [42]: 11.6 µM
- TGI [42]: 24.2 µM
- GI50 [43]: 1.28 µM
- TGI [43]: 4.61 µM
- GI50 [44]: 11.5 µM
- TGI [44]: 25.7 µM
- GI50 [45]: 8.43 µM
- TGI [45]: 25.9 µM
- GI50 [46]: 11.5 µM
- TGI [46]: 23.6 µM
- GI50 [47]: 0.225 µM
- TGI [47]: 1.2 µM
- GI50 [48]: 2.29 µM
- TGI [48]: 15.7 µM
- GI50 [49]: 3.41 µM
- TGI [49]: 16.2 µM
- GI50 [50]: 0.357 µM
- TGI [50]: 2.42 µM
- GI50 [51]: 0.65 µM
- TGI [51]: > 100 µM
- GI50 [52]: 1.15 µM
- TGI [52]: 16.2 µM
- GI50 [53]: 2.01 µM
- TGI [53]: 17.6 µM
- GI50 [54]: 1.16 µM
- TGI [54]: 10.6 µM
- GI50 [55]: 0.991 µM
- TGI [55]: 17.5 µM
- GI50 [56]: 6.64 µM
- TGI [56]: 28 µM
- GI50 [57]: 2.89 µM
- TGI [57]: 14.3 µM
- GI50 [58]: 1.55 µM
- TGI [58]: 11 µM
